The record followed here is patent US20250331521A1, “NITROGEN-CONTAINING HETEROCYCLIC COMPOUND HAVING AN OXIME GROUP, AGRICULTURAL OR HORTICULTURAL HERBICIDE COMPRISING THE COMPOUND, AND METHOD FOR USING THE COMPOUND OR THE HERBICIDE” (NIHON NOHYAKU CO., LTD., priority 2022, published 2025).

The test has as its system Barnyard grass (Echinochloa crus-galli). Description: Test Example 1: post-emergence herbicidal effect against paddy weeds. It is filed as in vivo. The note with it: 144 h, active ingredient concentration 10 ppm, drop treatment in hydroponic medium, 30° C., full light, six days after treatment, compared to non-treatment group, read-out: herbicidal effect against barnyard grass (score, degree of growth inhibition). How it is done: Test Example 1: Test for Post-Emergence Herbicidal Effect Against Paddy Weeds Barnyard grass (Echinochloa crus-galli) was seeded and grown in test tubes containing hydroponic medium in an artificial climate chamber or a phytotron. Agrochemical formulations containing the compounds of the present invention as active ingredients prepared according to Formulation Example 1 were separately diluted with water so that the concentration of the active ingredient would be a predetermined concentration and used for drop treatment of the barnyard grass. The barnyard grass was grown in the artificial climate chamber at 30° C. under full light conditions. Six days after agrochemical treatment, the herbicidal effect was evaluated as compared to the non-treatment group according to the following criteria. Criteria for Herbicidal Effect (Degree of Growth Inhibition) and Phytotoxicity • Score 4 90% to 100% herbicidal effect • Score 3 70% to 89% herbicidal effect • Score 2 40% to 69% herbicidal effect • Score 1 1% to 39% herbicidal effect • Score 0 0% herbicidal effect
With `CCO/N=C(\N)c1ccc(S(C)(=O)=O)c(-c2nc(-c3ccccc3)cs2)n1` [Compound No. 8-17, (Z)-N′-ethoxy-5-(methylsulfonyl)-6-(4-phenylthiazol-2-yl)picolinimidamide], the inhibition at 10 ppm lay in the range of 70 to 89%.

Turning to `CCO/N=C(\N)c1ccc(S(=O)(=O)NC)c(-c2nc(-c3ccccc3)cn2C)n1` [Compound No. 2-33, (Z)-N′-ethoxy-6-(1-methyl-4-phenyl-1H-imidazol-2-yl)-5-(N-methylsulfamoyl)picolinimidamide], the inhibition at 10 ppm is 70 to 89%.

Take `CCO/N=C(\N)c1ccc(S(=O)(=O)NC)c(-c2nc(-c3ccccc3Cl)nn2C)c1` [Compound No. 17-2, (Z)-3-(3-(2-chlorophenyl)-1-methyl-1H-1,2,4-triazol-5-yl)-N′-ethoxy-4-(N-methylsulfamoyl)benzimidamide]: the inhibition at 10 ppm was 70 to 89%.

For `CCO/N=C(\N)c1ccc(S(C)(=O)=O)c(-c2nn(-c3ccccc3[N+](=O)[O-])nc2C)n1` [Compound No. 11-95, (Z)-N′-ethoxy-6-(5-methyl-2-(2-nitrophenyl)-2H-1,2,3-triazol-4-yl)-5-(methylsulfonyl)picolinimidamide], the inhibition at 10 ppm was in the range of 70 to 89%.

As to `CCO/N=C(\N)c1ccc(S(=O)(=O)NC)c(-c2nc(-c3ccccc3)cs2)n1` [Compound No. 8-2, (Z)-N′-ethoxy-5-(N-methylsulfamoyl)-6-(4-phenylthiazol-2-yl)picolinimidamide], the inhibition at 10 ppm was in the range of 70 to 89%.

`CCO/N=C(\N)c1ccc(S(=O)(=O)NC)c(-c2nn(-c3ccccc3)cc2C)n1` [Compound No. 10-2, (Z)-N′-ethoxy-6-(4-methyl-1-phenyl-1H-pyrazol-3-yl)-5-(N-methylsulfamoyl)picolinimidamide]: the inhibition at 10 ppm lay within 70 to 89%.

Consider `CCO/N=C(\N)c1ccc(S(=O)(=O)NC)c(-n2nc(-c3ccccc3)cc2C)n1` [Compound No. 4-6, (Z)-N′-ethoxy-6-(5-methyl-3-phenyl-1H-pyrazol-1-yl)-5-(N-methylsulfamoyl)picolinimidamide], for which the inhibition at 10 ppm is 70 to 89%.

`CCO/N=C(\N)c1ccc(S(=O)(=O)NC)c(-c2nc(-c3ccccc3)nn2C)n1` [Compound No. 1-4, (Z)-N′-ethoxy-6-(1-methyl-3-phenyl-1H-1,2,4-triazol-5-yl)-5-(N-methylsulfamoyl)picolinimidamide]: the inhibition at 10 ppm was 70 to 89%.

In the case of `CCO/N=C(\N)c1ccc(C(=O)OCC)c(-c2nn(-c3ccccc3)c(=O)n2C)n1` [Compound No. 5-3, (Z)-ethyl 6-(N′-ethoxycarbamimidoyl)-2-(4-methyl-5-oxo-1-phenyl-4,5-dihydro-1H-1,2,4-triazol-3-yl)nicotinate], the inhibition at 10 ppm lay within 70 to 89%.

For the compound `CCO/N=C(\N)c1ccc(S(C)(=O)=O)c(-c2nn(-c3ccccc3)cc2C)n1` [Compound No. 10-16, (Z)-N′-ethoxy-6-(4-methyl-1-phenyl-1H-pyrazol-3-yl)-5-(methylsulfonyl)picolinimidamide], the inhibition at 10 ppm is 70 to 89%.

With `CCO/N=C(\N)c1ccc(S(=O)(=O)NC)c(-c2csc(-c3ccccc3)n2)n1` [Compound No. 7-18, (Z)-N′-ethoxy-5-(N-methylsulfamoyl)-6-(2-phenylthiazol-4-yl)picolinimidamide], the inhibition at 10 ppm was 70 to 89%.

Regarding `CCO/N=C(\C)c1ccc(S(C)(=O)=O)c(-n2c(C)nn(-c3ccccc3)c2=O)n1` [Compound No. 6-1, (E)-4-(6-(1-(ethoxyimino)ethyl)-3-(methylsulfonyl)pyridin-2-yl)-3-methyl-1-phenyl-1H-1,2,4-triazol-5(4H)-one], the inhibition at 10 ppm is 70 to 89%.

Regarding `CCO/N=C(\N)c1ccc(S(=O)(=O)NC)c(-n2nc(-c3ccccc3)nc2C)n1` [Compound No. 3-3, (Z)-N′-ethoxy-6-(5-methyl-3-phenyl-1H-1,2,4-triazol-1-yl)-5-(N-methylsulfamoyl)picolinimidamide], the inhibition at 10 ppm lay in the range of 70 to 89%.

Regarding `CCO/N=C(\N)c1ccc(C(=O)OCC)c(-c2nc(-c3ccccc3)sc2C)n1` [Compound No. 7-1, (Z)-ethyl 6-(N′-ethoxycarbamimidoyl)-2-(5-methyl-2-phenylthiazol-4-yl)nicotinate], the inhibition at 10 ppm lay in the range of 70 to 89%.

Regarding `CCO/N=C(\N)c1ccc(S(=O)(=O)NC)c(-n2nc(C)c(-c3ccccc3)n2)n1` [Compound No. 20-17, (Z)-N′-ethoxy-6-(4-methyl-5-phenyl-2H-1,2,3-triazol-2-yl)-5-(N-methylsulfamoyl)picolinimidamide], the inhibition at 10 ppm is 70 to 89%.
